{"source": "patent US12509445B2", "about": "“Herbicidally active 4-cyclopropyl-6-[4-(trifluormethyl)pyrazol-1-yl)]pyrimidines” (Bayer Aktiengesellschaft, priority 2019, dated 2025)", "assay_type_in_all_cases": "in vivo", "key": {"[1]": {"tested_on": "Pharbitis purpurea (PHBPU)", "assay": "Pre-emergence herbicidal action", "conditions": "320 g/ha, visual scoring after about 3 weeks vs untreated controls, 100% = plants have died", "excerpt": "(§1) The abbreviations used here have the following meanings: • ABUTH Abutilon theophrasti • AMARE Amaranlhus retroflexus • CYPES Cyperus serotinus • ECHCGEchinocloa crus galli • LOLRI Lolium rigidum Gaudin • PHBPU Pharbitis purpurcum • SETVI Setaria viridis • VERPE Veronica persica • ALOMY Alopccurus myosuroides • AVEFA Avena fatua • DIGSA Digitaria sanguinalis • LOLMU Lolium multiflorum • MATIN Matricaria inodora • POLCO Polygonum convolvulus • STEME Stellaria media • VIOTR Viola tricolor\n(§2) Seeds of monocotyledonous and dicotyledonous weed plants and crop plants are placed in plastic or organic plant pots and covered with soil. The compounds of the invention, formulated in the form of wettable powders (WP) or as emulsion concentrates (EC), are then applied onto the surface of the covering soil as aqueous suspension or emulsion with addition of 0.5% additive at a water application rate of 600 l/ha (converted). After the treatment, the pots are placed in a greenhouse and kept under good growth conditions for the trial plants. After about 3 weeks, the effect of the preparations is scored visually in comparison with untreated controls as percentages. For example, 100% activity=the plants have died, 0% activity=like control plants."}, "Veronica persica (VERPE) [2]": {"tested_on": "Veronica persica (VERPE)", "assay": "Pre-emergence herbicidal action", "conditions": "320 g/ha, visual scoring after about 3 weeks vs untreated controls, 100% = plants have died", "excerpt": "as §1, §2"}, "[3]": {"tested_on": "Amaranthus retroflexus (AMARE)", "assay": "Pre-emergence herbicidal action", "conditions": "320 g/ha, visual scoring after about 3 weeks vs untreated controls, 100% = plants have died", "excerpt": "as §1, §2"}, "[4]": {"tested_on": "Digitaria sanguinalis (DIGSA)", "assay": "Pre-emergence herbicidal action", "conditions": "320 g/ha, visual scoring after about 3 weeks vs untreated controls, 100% = plants have died", "excerpt": "as §1, §2"}, "Avena fatua (AVEFA)": {"tested_on": "Avena fatua (AVEFA)", "assay": "Pre-emergence herbicidal action", "conditions": "320 g/ha, visual scoring after about 3 weeks vs untreated controls, 100% = plants have died", "excerpt": "as §1, §2"}, "[5]": {"tested_on": "Lolium rigidum Gaudin (LOLRI)", "assay": "Pre-emergence herbicidal action", "conditions": "320 g/ha, visual scoring after about 3 weeks vs untreated controls, 100% = plants have died", "excerpt": "as §1, §2"}, "Viola tricolor (VIOTR) [6]": {"tested_on": "Viola tricolor (VIOTR)", "assay": "Post-emergence herbicidal action", "conditions": "320 g/ha, visual rating after about 3 weeks vs untreated controls, 100% = plants have died", "method": "(§3) Seeds of monocotyledonous and dicotyledonous weeds and crop plants are placed in sandy loam in plastic or organic plant pots, covered with soil and cultivated in a greenhouse under controlled growth conditions. 2 to 3 weeks after sowing, the test plants are treated at the one-leaf stage. The compounds of the invention, formulated in the form of wettable powders (WP) or as emulsion concentrates (EC), are then sprayed onto the green parts of the plants as aqueous suspension or emulsion with addition of 0.5% additive at a water application rate of 600 l/ha (converted). After the test plants have been kept in the greenhouse under optimum growth conditions for about 3 weeks, the activity of the preparations is rated visually in comparison to untreated controls. For example, 100% activity=the plants have died, 0% activity=like control plants.\nas §1"}, "[7]": {"tested_on": "Pharbitis purpurea (PHBPU)", "assay": "Post-emergence herbicidal action", "conditions": "320 g/ha, visual rating after about 3 weeks vs untreated controls, 100% = plants have died", "method": "as §3, §1"}, "Veronica persica (VERPE) [8]": {"tested_on": "Veronica persica (VERPE)", "assay": "Post-emergence herbicidal action", "conditions": "320 g/ha, visual rating after about 3 weeks vs untreated controls, 100% = plants have died", "method": "as §3, §1"}, "[9]": {"tested_on": "Amaranthus retroflexus (AMARE)", "assay": "Post-emergence herbicidal action", "conditions": "320 g/ha, visual rating after about 3 weeks vs untreated controls, 100% = plants have died", "method": "as §3, §1"}, "[10]": {"tested_on": "Lolium rigidum Gaudin (LOLRI)", "assay": "Post-emergence herbicidal action", "conditions": "320 g/ha, visual rating after about 3 weeks vs untreated controls, 100% = plants have died", "method": "as §3, §1"}, "[11]": {"tested_on": "harmful plants such as Alopecurus myosuroides, Amaranthus retroflexus, Avena fatua, Echinochloa crus-galli, Matricaria inodora, Pharbitis purpurea, Polygonum …", "assay": "Pre-emergence herbicidal action, summary in text", "conditions": "pre-emergence treatment", "excerpt": "as §2\nAt the same time, some compounds according to the invention leave graminaceous crops such as barley, wheat, rye, millet/sorghum, maize, rice or sugarcane virtually undamaged when applied by the pre-emergence method, even at high active compound dosages. Some compounds are additionally also benign to dicotyledonous crops such as soya, cotton, oilseed rape or sugarbeet."}, "[12]": {"tested_on": "Alopecurus myosuroides (ALOMY)", "assay": "Post-emergence herbicidal action", "method": "as §3, §1\n(§4) The compounds according to the invention were tested by the post-emergence and pre-emergence methods under the conditions described above for comparative purposes with the structurally closest compounds known from WO 2005/089551 A1 (D1)."}, "[13]": {"tested_on": "Echinochloa crus-galli (ECHCG)", "assay": "Post-emergence herbicidal action", "method": "as §3, §1, §4"}, "Setaria viridis (SETVI) [14]": {"tested_on": "Setaria viridis (SETVI)", "assay": "Post-emergence herbicidal action", "method": "as §3, §1, §4"}, "[15]": {"tested_on": "Matricaria inodora (MATIN)", "assay": "Post-emergence herbicidal action", "conditions": "80 g of a.i./ha, comparative test", "method": "as §3, §1, §4"}, "Viola tricolor (VIOTR) [16]": {"tested_on": "Viola tricolor (VIOTR)", "assay": "Pre-emergence herbicidal action", "excerpt": "as §1, §2, §4"}, "[17]": {"tested_on": "Alopecurus myosuroides (ALOMY)", "assay": "Pre-emergence herbicidal action", "excerpt": "as §1, §2, §4"}, "[18]": {"tested_on": "Echinochloa crus-galli (ECHCG)", "assay": "Pre-emergence herbicidal action", "excerpt": "as §1, §2, §4"}, "Stellaria media (STEME)": {"tested_on": "Stellaria media (STEME)", "assay": "Pre-emergence herbicidal action", "excerpt": "as §1, §2, §4"}, "Setaria viridis (SETVI) [19]": {"tested_on": "Setaria viridis (SETVI)", "assay": "Pre-emergence herbicidal action", "excerpt": "as §1, §2, §4"}, "[20]": {"tested_on": "Matricaria inodora (MATIN)", "assay": "Pre-emergence herbicidal action", "excerpt": "as §1, §2, §4"}, "[21]": {"tested_on": "Polygonum convolvulus (POLCO)", "assay": "Pre-emergence herbicidal action", "excerpt": "as §1, §2, §4"}, "[22]": {"conditions": "80 g of a.i./ha, comparative test"}, "[23]": {"conditions": "320 g/ha, visual rating after about 3 weeks vs untreated controls, 100% = plants have died"}, "[24]": {"conditions": "320 g/ha, visual scoring after about 3 weeks vs untreated controls, 100% = plants have died"}}, "data": [{"smiles": "FC(F)Oc1cc(Oc2nc(C3CC3)cc(-n3cc(C(F)(F)F)cn3)n2)ccn1", "note": "[Example I-003]", "values": [{"measurement": "Pre-emergence action PHBPU", "setting": "[1]", "value": 100, "unit": "%"}, {"measurement": "Pre-emergence action VERPE", "setting": "Veronica persica (VERPE) [2]", "value": 100, "unit": "%"}, {"measurement": "Pre-emergence action AMARE", "setting": "[3]", "value": 100, "unit": "%"}, {"measurement": "Pre-emergence action DIGSA", "setting": "[4]", "value": 100, "unit": "%"}, {"measurement": "Pre-emergence action AVEFA", "setting": "Avena fatua (AVEFA)", "value": 90, "unit": "%"}, {"measurement": "Pre-emergence action LOLRI", "setting": "[5]", "value": 100, "unit": "%"}, {"measurement": "Post-emergence action VIOTR", "setting": "Viola tricolor (VIOTR) [6]", "value": 90, "unit": "%"}, {"measurement": "Post-emergence action PHBPU", "setting": "[7]", "value": 80, "unit": "%"}, {"measurement": "Post-emergence action VERPE", "setting": "Veronica persica (VERPE) [8]", "value": 90, "unit": "%"}, {"measurement": "Post-emergence action AMARE", "setting": "[9]", "value": 90, "unit": "%"}, {"measurement": "Post-emergence action LOLRI", "setting": "[10]", "value": 90, "unit": "%"}, {"measurement": "herbicidal action against harmful plants (in words)", "setting": "[11]", "value": "good herbicidal action"}, {"measurement": "Herbicidal action against ALOMY", "setting": "[12]; [22]", "value": 60, "unit": "%"}, {"measurement": "Post-emergence action ALOMY", "setting": "[12]; [23]", "value": 90, "unit": "%"}, {"measurement": "Herbicidal action against ECHCG", "setting": "[13]; [22]", "value": 80, "unit": "%"}, {"measurement": "Post-emergence action ECHCG", "setting": "[13]; [23]", "value": 90, "unit": "%"}, {"measurement": "Herbicidal action against SETVI", "setting": "Setaria viridis (SETVI) [14]; [22]", "value": 60, "unit": "%"}, {"measurement": "Post-emergence action SETVI", "setting": "Setaria viridis (SETVI) [14]; [23]", "value": 80, "unit": "%"}, {"measurement": "Herbicidal action against MATIN", "setting": "[15]", "value": 60, "unit": "%"}, {"measurement": "Herbicidal action against VIOTR", "setting": "Viola tricolor (VIOTR) [16]; [22]", "value": 100, "unit": "%"}, {"measurement": "Pre-emergence action VIOTR", "setting": "Viola tricolor (VIOTR) [16]; [24]", "value": 100, "unit": "%"}, {"measurement": "Herbicidal action against ALOMY", "setting": "[17]; [22]", "value": 60, "unit": "%"}, {"measurement": "Pre-emergence action ALOMY", "setting": "[17]; [24]", "value": 100, "unit": "%"}, {"measurement": "Herbicidal action against ECHCG", "setting": "[18]; [22]", "value": 30, "unit": "%"}, {"measurement": "Pre-emergence action ECHCG", "setting": "[18]; [24]", "value": 90, "unit": "%"}, {"measurement": "Herbicidal action against STEME", "setting": "Stellaria media (STEME); [22]", "value": 90, "unit": "%"}, {"measurement": "Pre-emergence action STEME", "setting": "Stellaria media (STEME); [24]", "value": 100, "unit": "%"}, {"measurement": "Herbicidal action against SETVI", "setting": "Setaria viridis (SETVI) [19]; [22]", "value": 100, "unit": "%"}, {"measurement": "Pre-emergence action SETVI", "setting": "Setaria viridis (SETVI) [19]; [24]", "value": 100, "unit": "%"}, {"measurement": "Herbicidal action against MATIN", "setting": "[20]; [22]", "value": 90, "unit": "%"}, {"measurement": "Pre-emergence action MATIN", "setting": "[20]; [24]", "value": 90, "unit": "%"}, {"measurement": "Herbicidal action against POLCO", "setting": "[21]; [22]", "value": 20, "unit": "%"}, {"measurement": "Pre-emergence action POLCO", "setting": "[21]; [24]", "value": 90, "unit": "%"}]}]}
